Measured values published in patent US20220378764A1, “[…] OF A GENE ENCODING A CYTOCHROME P450 PROTEIN BY TREATING A HUMAN SUBJECT WITH A NITROXIDE” (priority 2021, published 2022).

Tested on: fifteen genes associated with the cytochrome p450 family
Experiment: Microarray gene expression in tissue of Tempol-fed mice, overall statement
Type: in vivo
Conditions: 5 mg/g of food from 14 to 31 months after birth, cardiac tissue, vs control mice
Method: Mice receiving the same food without the addition of Tempol were used as a negative control. At the age of 31 months, the experimental animals were sacrificed and the hearts were surgically removed. The expression of a broad spectrum of genes in the cardiac tissue was assessed using chip-based microarray technology. Such chips are well known in the art and are widely used to assess gene expression.

CC1(C)CC(O)CC(C)(C)N1[O] [Tempol, 4-hydroxy-2,2,6,6-tetramethylpiperidine-1-oxyl]
Expression of fifteen genes associated with the cytochrome p450 family: statistically significant increase in expression
